# Assay results reported in the supplement of paper PMC10307832.
# Assays:
# Test in all cases: relative viability (nuclei count vs DMSO), 5 days (fraction); higher = more cells survive
# [1] = compound: C1/C(=C\C2=CC=CS2)/C(=O)/C(=C/C3=CC=CS3)/C1 + CC(C)C[C@H](NC(=O)[C@H](Cc1ccccc1)NC(=O)c1cnccn1)B(O)O [Bortezomib] (partner 0.002 µM)
# How it was run: (§1)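 Five library-drug doses in √10 steps were combined with a fixed anchor-drug dose, or a single drug was given alone, by pin tool to lung cancer cell lines in 1536-well plates the day after seeding. Nuclei were stained and counted after 5 days. Relative viability is the nuclei count in treated wells over that in vehicle wells, taken as the median of duplicate plates.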
# [2] = compound: C1=CC(=CC=C1C2=CC(=C(S2)NC(=O)N)C(=O)N)F [TPCA-1] + CC(C)C[C@H](NC(=O)[C@H](Cc1ccccc1)NC(=O)c1cnccn1)B(O)O [Bortezomib] (partner 0.002 µM)
# How it was run: as §1
# [3] = compound: C1=CC(=CC=C1C2=CC(=C(S2)NC(=O)N)C(=O)N)F [TPCA-1] + C[C@@H](Oc1cc(-c2cnn(C3CCNCC3)c2)cnc1N)c1c(Cl)ccc(F)c1Cl [Crizotinib] (partner 1 µM)
# How it was run: as §1
# [4] = compound: C1=CC(=CC=C1C2=CC(=C(S2)NC(=O)N)C(=O)N)F [TPCA-1] + Cc1nc(Nc2ncc(C(=O)Nc3c(C)cccc3Cl)s2)cc(N2CCN(CCO)CC2)n1 [Dasatinib] (partner 0.075 µM)
# How it was run: as §1
Cell Line,relative viability ([1]; first compound 0.2 µM),relative viability ([1]; first compound 0.6325 µM),relative viability ([1]; first compound 2 µM),relative viability ([1]; first compound 6.325 µM),relative viability ([1]; first compound 20 µM),relative viability ([2]; first compound 0.04 µM),relative viability ([2]; first compound 0.1265 µM),relative viability ([2]; first compound 0.4 µM),relative viability ([2]; first compound 1.265 µM),relative viability ([2]; first compound 4 µM),relative viability ([3]; first compound 0.04 µM),relative viability ([3]; first compound 0.1265 µM),relative viability ([3]; first compound 0.4 µM),relative viability ([3]; first compound 1.265 µM),relative viability ([3]; first compound 4 µM),relative viability ([4]; first compound 0.04 µM),relative viability ([4]; first compound 0.1265 µM),relative viability ([4]; first compound 0.4 µM),relative viability ([4]; first compound 1.265 µM),relative viability ([4]; first compound 4 µM)
PC-3 [JPC-3],0.845,0.956,0.88,0.76,0.884,0.896,0.812,0.833,0.792,0.851,0.982,0.943,1.07,0.962,0.819,0.959,0.99,1.04,0.943,0.999
NCI-H1792,0.968,0.957,1.06,–,0.832,0.97,0.924,0.84,0.964,0.559,1.01,0.952,1.02,0.928,0.584,0.8,0.715,0.765,0.678,0.624
NCI-H596,0.868,1.07,1.19,1.08,–,1.07,0.976,1.07,–,0.976,1.01,1.1,0.522,0.972,1.01,0.661,0.559,0.599,0.597,0.763
RERF-LC-KJ,1.07,1.14,1.04,0.912,1.13,1.32,1.09,0.857,0.916,0.998,0.875,0.815,0.835,0.792,0.758,0.988,0.668,0.76,0.591,0.508
NCI-H322M,1.17,1.31,1.3,1.19,1.12,1.18,1.17,1.36,1.24,1.27,0.807,0.924,0.873,0.841,0.728,0.267,0.261,0.244,0.281,0.238
COR-L 105,1.02,0.73,1.03,0.678,0.662,0.846,0.808,0.982,0.516,0.333,0.812,1.14,0.751,0.629,0.347,0.307,0.361,0.345,0.225,0.204
NCI-H1993,1.07,0.946,1.36,0.915,1.19,1.13,–,1.14,1.28,0.836,0.868,–,1.02,0.851,0.849,0.564,0.54,0.617,0.522,0.537
NCI-H1437,0.544,0.503,0.479,0.495,0.479,0.586,0.496,0.577,0.367,0.504,0.941,0.892,0.892,0.872,0.834,0.462,0.368,0.565,0.408,0.325
NCI-H838,0.864,0.787,0.912,0.655,0.782,1.2,0.594,0.876,0.35,0.739,0.837,0.752,0.806,0.698,0.471,0.378,0.259,0.266,0.247,0.259
NCI-H1944,–,–,–,–,–,–,–,–,–,–,1.18,1.03,1.02,1.02,0.682,0.251,0.207,0.217,0.198,0.151
EBC-1,0.524,0.558,0.551,0.441,0.605,0.521,0.617,0.618,0.59,0.479,0.206,0.175,0.201,0.195,0.222,–,–,–,–,–
SK-MES-1,–,–,–,–,–,–,–,–,–,–,1,0.907,0.923,0.948,0.589,0.491,0.251,0.333,0.224,0.152
NCI-H1299,1.07,1.05,0.96,0.898,1.03,1.02,0.961,1.01,0.981,1.07,0.95,0.943,0.907,0.972,0.948,–,–,–,–,–
A549,–,–,–,–,–,–,–,–,–,–,0.898,0.748,0.773,0.522,0.331,–,–,–,–,–
NCI-H1793,–,–,–,–,–,–,–,–,–,–,–,–,–,–,–,0.422,–,0.342,0.365,0.211
NCI-H1623,–,–,–,–,–,–,–,–,–,–,–,–,–,–,–,0.523,0.466,0.576,0.62,0.336
NCI-H1703,0.338,0.432,0.28,0.25,0.336,0.299,0.385,0.394,0.41,0.367,0.585,0.57,0.594,0.396,0.459,–,–,–,–,–
NCI-H2170,–,–,–,–,–,–,–,–,–,–,1.33,1.15,1.16,1.13,0.583,0.676,0.56,0.632,0.581,0.269
NCI-H1395,–,–,–,–,–,–,–,–,–,–,–,–,–,–,–,0.478,0.39,0.4,0.421,0.344
HCC-44,0.911,0.851,0.844,0.801,0.923,0.903,0.789,0.908,0.745,0.883,0.798,0.708,0.76,0.681,0.644,–,–,–,–,–
NCI-H522,–,–,–,–,–,–,–,–,–,–,–,–,–,–,–,0.993,0.833,1.11,0.844,0.788
Calu-6,1.02,1.02,1,0.837,1.06,1.1,0.933,1.09,0.873,0.658,0.861,0.789,0.767,0.669,0.373,–,–,–,–,–
LK-2,–,–,–,–,–,–,–,–,–,–,0.22,0.229,0.289,0.206,0.313,0.255,0.226,0.386,0.241,0.237
